Experimental data: patent US8778894B2, “Luteolin and diosmin/diosmetin as novel STAT3 inhibitors for treating autism” (University of South Florida, priority 2008, dated 2014)

What was measured:
[1] = tested on: IL-6/MIA adult offspring; test: Social interaction test in IL-6/MIA adult offspring; type: in vivo, mice; details: for social interaction test, sniffing time: maternal S31-201 or diosmin vs IL-6/MIA, P<0.05; for social interaction test, social impairment (preference for the social chamber): maternal co-treatment with S31-201 4 μg i.p. or diosmin 10 mg/kg/day oral, P<0.005
Description: Pregnant C57BL/6 mice, embryonic day 2 (E2) were obtained from Jackson Laboratory (Bar Harbor, […].) and individually housed and maintained in an animal facility of the University of South Florida (USF). All subsequent experiments were performed in compliance with protocols approved by the USF Institutional Animal Care and Use Committee. […] Intraperitoneal PBS injection (200 μL) was used as the control for IL-6 administration. Social interaction (SI)—The testing apparatus consisted of a 60×40 cm Plexiglas box divided into three chambers. Mice were able to move between chambers through a small opening (6×6 cm) in the dividers. Plastic cylinders in each of the two side chambers contained the probe mice, and numerous 1 cm holes in the cylinders enabled test and probe mice to contact each other. Test mice were placed in the center chamber, with an overhead camera recording their movements. Mice were allowed 5 min of exploration time in the box, after which an unfamiliar, same-sex probe mouse from the same experimental group was placed in one of two restraining cylinders (Radyushkin et al. 2009). The Ethovision software (Noldus, Leesburg, Va.) program measured time spent in each of the three chambers, and social preference was defined as follows: (% time spent in the social chamber)−(% time spent in the opposite chamber). […] We also treated control mice (non-IL-6 treated) with the STAT3 inhibitor, S31. […] (10 mg/kg/day)]. […] Heightened anxiety and social interaction deficits are hallmarks of schizophrenia and autism. Reluctance to enter the center portion of a well-lit open field is usually taken as a measure of heightened anxiety under mildly stressful conditions (Smith et al., 2007).

[2] = tested on: STAT3 phosphorylation (Ser727); test: STAT3 phosphorylation in brain homogenates of IL-6/MIA adult offspring, Western blot; type: in vivo, mice; details: maternal co-treatment with S31-201 or diosmin vs IL-6 only; P<0.005
Description: (§1) Cultured cells were lysed in ice-cold lysis buffer (20 mM Tris, pH 7.5, 150 mM NaCl, 1 mM EDTA, 1 mM EGTA, 1% v/v Triton X-100, 2.5 mM sodium pyrophosphate, 1 mM β-glycerolphosphate, 1 mM Na3VO4, 1 μg/mL leupeptin, 1 mM PMSF) as described previously (Tan et al. 2002). Mouse brains were isolated under sterile conditions on ice and placed in ice-cold lysis buffer. Brains were then sonicated on ice for approximately 3 min, allowed to stand for 15 min at 4° C., then centrifuged at 15,000 rpm for 15 min at 4° C. Total protein content was estimated using the BCA protein assay (Pierce Biotechnology) and aliquots corresponding to 100 μg of total protein were electrophoretically separated using 10% Tris gels. Electrophoresed proteins were then transferred to nitrocellulose membranes (Bio-Rad, Richmond, Calif.), washed in Tris buffered saline with 0.1% Tween-20 (TBS/T), and blocked for 1 h at ambient temperature in TBS/T containing 5% (w/v) non-fat dry milk. After blocking, membranes were hybridized overnight at 4° C. with various primary antibodies. Membranes were then washed 3× for 5 min each in TBS/T and incubated for 1 h at ambient temperature with the appropriate HRP-conjugated secondary antibody (1:1000, Pierce Biotechnology). […] Densitometric analysis was conducted using a FluorS Multiimager with Quantity One™ software (Bio-Rad, Hercules, Calif.). […]

[3] = tested on: TNF-α; test: TNF-α ELISA in brain homogenates of IL-6/MIA newborn mice; type: in vivo; details: dams IL-6 5 μg i.p.; S31-201 4 μg i.p. or diosmin 10 mg/kg/day oral; P<0.01
Description: (§2) Mouse brain homogenates were prepared as described above and used at a dilution of 1:10 in PBS for these assays. Brain tissue-solubilized cytokines were quantified using commercially available ELISAs that allow for detection of IL-1β, and TNF-α. Cytokine detection was carried out according to the manufacturer's instruction. Total protein content was determined as described above and data represented as pg of cytokine/mg total cellular protein for each cytokine.
(§3) Pro-inflammatory cytokine analysis by ELISA was conducted on these newborn mouse brain homogenates. Data are represented as mean±SD of each cytokine in brain homogenates (pg/mg total protein) from these newborn mice.

[4] = tested on: IL-6 induced JAK2 phosphorylation; test: JAK2 phosphorylation in brain homogenates of IL-6/MIA newborn mice, Western blot; type: in vivo; details: dams IL-6 5 μg i.p. at E12.5; S31-201 4 μg i.p. or diosmin 10 mg/kg/day oral; vs IL-6 only, P<0.005
Description: as §1

[5] = tested on: IL-6/MIA adult offspring; details: for open-field test, entries into the center: adult offspring of IL-6 treated dams co-treated with S31-201 4 μg i.p. or diosmin 10 mg/kg/day oral, P<0.01
Description: Pregnant C57BL/6 mice, embryonic day 2 (E2) were obtained from Jackson Laboratory (Bar Harbor, […].) and individually housed and maintained in an animal facility of the University of South Florida (USF). All subsequent experiments were performed in compliance with protocols approved by the USF Institutional Animal Care and Use Committee. […] Intraperitoneal PBS injection (200 μL) was used as the control for IL-6 administration. Open field (OF)—The OF behavioral analysis is a test of both locomotor activity and emotionality in rodents (Radyushkin et al. 2009). Mice were placed in a 50×50 cm white Plexiglas box brightly lit by fluorescent room lighting and six 60 W incandescent bulbs approximately 1.5 m above the box. Activity was recorded by a ceiling-mounted video camera and analyzed from digital video files either by the automated tracking capabilities of Ethovision or counted using the behavior tracker (version 1.5, www.behaviortracker.com), a software-based event-recorder. The total distance moved and numbers of entries into the center of the arena (central 17 cm square) were determined in a 10 minute session. […] We also treated control mice (non-IL-6 treated) with the STAT3 inhibitor, S31. […] (10 mg/kg/day)]. […] Heightened anxiety and social interaction deficits are hallmarks of schizophrenia and autism. Reluctance to enter the center portion of a well-lit open field is usually taken as a measure of heightened anxiety under mildly stressful conditions (Smith et al., 2007).

[6] = tested on: TNF-α; test: TNF-α ELISA in brain homogenates of IL-6/MIA adult offspring; type: in vivo, mice; details: maternal co-treatment with S31-201 or diosmin vs IL-6 only; P<0.05
Description: as §2
(§4) At sacrifice, brain homogenates were prepared from offspring of mice treated with IL-6, IL-6/S31-201, IL-6/Diosmin or PBS (control) (n=8, 4 female/4 male). Pro-inflammatory cytokine analysis by ELISA was conducted on these mouse brain homogenates. Data are represented as mean±SD of each cytokine in brain homogenates (pg/mg total protein) from these mice.

[7] = tested on: IL-1β; test: IL-1β ELISA in brain homogenates of IL-6/MIA adult offspring; type: in vivo, mice; details: maternal co-treatment with S31-201 or diosmin vs IL-6 only; P<0.05
Description: as §2, §4

[8] = tested on: IL-6 induced STAT3 phosphorylation; test: STAT3 phosphorylation in brain homogenates of IL-6/MIA newborn mice, Western blot; type: in vivo; details: dams IL-6 5 μg i.p. at E12.5; S31-201 4 μg i.p. or diosmin 10 mg/kg/day oral; vs IL-6 only, P<0.005
Description: as §1

[9] = tested on: IL-1β; test: IL-1β ELISA in brain homogenates of IL-6/MIA newborn mice; type: in vivo; details: dams IL-6 5 μg i.p.; S31-201 4 μg i.p. or diosmin 10 mg/kg/day oral; P<0.01
Description: as §2, §3

[10] = after intestinal transformation of diosmin to diosmetin and absorption; cited from earlier work
[11] = 500-2,000 mg per day orally for up to one year; cited from earlier work
[12] = tested on: STAT3 activation/phosphorylation induced by IL-6; test: STAT3 activation induced by IL-6 in cultured neuronal cells (PC12 and N2a), Western blot; type: cell-based; details: dose-dependent
[13] = tested on: IL-6 induced STAT3 phosphorylation (Ser727); test: IL-6 induced STAT3 phosphorylation in N2a and primary neuronal cells, Western blot; type: cell-based, murine; details: IL-6 50 ng/mL, 30 min
Description: (§5) Cerebral cortices were isolated from C57BL/6 mouse embryos, between 15 and 17 days in utero. After 15 min of incubation in trypsin (0.25%) at 37° C., individual cortices were mechanically dissociated. Cells were collected after centrifugation at 1200 rpm, resuspended in DMEM supplemented with 10% fetal calf serum, 10% horse serum, uridine ([…]; Sigma) and fluorodeoxyuridine ([…]; Sigma), and plated in 24 well collagen coated culture plates at a density of 2.5×10^5 cells per well.
(§6) N2a (murine neuroblastoma) cells, purchased from the American Type Culture Collection (ATCC, Manassas, Va.) were grown in complete EMEM supplemented with 10% fetal calf serum. Cells were plated in 24 well collagen coating culture plates at a density of 1×10^5 cells per well. After overnight incubation, N2a cells were incubated in neurobasal media supplemented with 3 mM dibutyryl cAMP in preparation for treatment. […]
(§7) Cultured cells were lysed in ice-cold lysis buffer (20 mM Tris, pH 7.5, 150 mM NaCl, 1 mM EDTA, 1 mM EGTA, 1% v/v Triton X-100, 2.5 mM sodium pyrophosphate, 1 mM β-glycerolphosphate, 1 mM Na3VO4, 1 μg/mL leupeptin, 1 mM PMSF) as described previously (Tan et al. 2002). […] Densitometric analysis was conducted using a FluorS Multiimager with Quantity One™ software (Bio-Rad, Hercules, Calif.). […]

[14] = tested on: IL-6 induced JAK2 phosphorylation; test: IL-6 induced JAK2 phosphorylation in N2a and primary neuronal cells, Western blot; type: cell-based, murine; details: IL-6 50 ng/mL, 30 min
Description: as §5, §6, §7

[15] = dose dependent, N2a and primary neurons

| Compound | social interaction test, sniffing time [1] | social interaction test, social impairment (preference for the social chamber) [1] | STAT3 phosphorylation in adult offspring brain homogenates [2] | reduction of the IL-6 induced increase in TNF-α level, newborn brain homogenates [3] | IL-6 induced JAK2 phosphorylation in newborn brain homogenates [4] | open-field test, entries into the center [5] | open-field behaviour, inhibitor-treated control (non-IL-6 injected) mice vs PBS-treated mice ([5]; mouse, in vivo) | TNF-α cytokine level in adult offspring brain homogenates [6] | IL-1β cytokine level in adult offspring brain homogenates [7] | IL-6 induced STAT3 phosphorylation in newborn brain homogenates [8] | reduction of the IL-6 induced increase in IL-1β level, newborn brain homogenates [9] | plasma half-life [10] | safety and tolerability in clinical trials [11] | inhibition of activation/phosphorylation of STAT3 induced by IL-6 [12] | concentration at which significant reductions of STAT3 (Ser727) phosphorylation begin [13, 15] | effect on apoprotein level of STAT3 ([13]; luteolin 0-20 μM) | concentration at which significant reductions of JAK2 phosphorylation begin [14, 15] | effect on apoprotein level of JAK2 ([14]; luteolin 0-20 μM) |
| --- | --- | --- | --- | --- | --- | --- | --- | --- | --- | --- | --- | --- | --- | --- | --- | --- | --- | --- |
| Cc1ccc(S(=O)(=O)OCC(=O)Nc2ccc(C(=O)O)c(O)c2)cc1 [S31-201] | increase in sniffing compared to IL-6/MIA mice | significantly attenuated | significant reduction | ~50% | significantly reduce | entering the center more often than IL-6 treated animals | did not find a significance | significantly reduces | significantly reduces | significantly reduce | ~50% |  |  |  |  |  |  |  |
| COc1ccc(-c2cc(=O)c3c(O)cc(O)cc3o2)cc1O [diosmetin] |  |  |  |  |  |  |  |  |  |  |  | 26 to 43 h |  |  |  |  |  |  |
| COc1ccc(-c2cc(=O)c3c(O)cc(O[C@@H]4O[C@H](CO[C@@H]5O[C@@H](C)[C@H](O)[C@@H](O)[C@H]5O)[C@@H](O)[C@H](O)[C@H]4O)cc3o2)cc1O [diosmin] | increase in sniffing compared to IL-6/MIA mice | significantly attenuated | significant reduction | ~50% | significantly reduce | entering the center more often than IL-6 treated animals |  | significantly reduces | significantly reduces | significantly reduce | ~50% |  | excellent safety profile and were well tolerated | inhibit activation/phosphorylation of STAT3 |  |  |  |  |
| O=c1cc(-c2ccc(O)c(O)c2)oc2cc(O)cc(O)c12 [luteolin, 3′,4′,5,7-tetrahydroxyflavone] |  |  |  |  |  |  |  |  |  |  |  |  |  | inhibit activation/phosphorylation of STAT3 | 10 µM | did not affect | 10 µM | did not affect |
